Measured values published in publication PMC9395488, “First-in-human study of IM156, a novel potent biguanide oxidative phosphorylation (OXPHOS) inhibitor, in patients with advanced solid tumors” (Investigational New Drugs, 2022).

Test system: patients with advanced solid tumors
Assay: First-in-human phase 1 dose-escalation study: safety, DLTs, adverse events
Format: in vivo
Description: This multicenter first-in-human dose-escalation phase 1 study (clinicaltrials.gov identifier: NCT03272256) was designed to determine the MTD or RP2D and to evaluate the safety and tolerability of IM156. Secondary endpoints included PK characteristics, efficacy assessment (objective response rate [ORR], disease control rate [DCR], duration of response [DoR] and progression-free survival [PFS]). Furthermore, exploratory objectives included identification and profiling of IM156 metabolites, evaluations of exploratory PD markers of IM156, and evaluations of any potential relationship between putative biomarkers and safety/efficacy parameters of IM156. The study was conducted in accordance with Good Clinical Practice, the International Council for Harmonisation, and guidelines governing clinical study conduct and the ethical principles originating from the Declaration of Helsinki. The study was approved by each Institutional Review Board and patients provided written informed consent. Patients were enrolled at three sites in South Korea.
The initial dose and schedule of IM156 was chosen based on animal toxicology studies. […] IM156 was administered in the fasted state, with no food for at least 2 h before and 1 h after dosing.
Three DLT-evaluable patients were enrolled at each dose level. If there were no DLTs or other prohibitive adverse events (AEs), the Safety Committee was allowed to recommend escalation to the next highest dose level. If 1 DLT occurred in the first 3 DLT-evaluable patients, enrollment in that cohort was expanded to an additional 3 DLT-evaluable patients; if ≥ 2 DLTs were reported in a cohort, that dose was considered above the MTD.
Safety was assessed through vital signs, weight, laboratory assessments, physical examinations, electrocardiogram, and reporting of AEs as graded by the National Cancer Institute’s Common Terminology Criteria for Adverse Events v4.03 (NCI-CTCAE).
DLTs were defined as the following AEs if they were attributed as related to IM156: asymptomatic grade 4 neutropenia lasting for ≥ 5 days; febrile neutropenia, regardless of grade; grade 4 thrombocytopenia or grade 3 thrombocytopenia with bleeding; any grade ≥ 3 non-hematologic AE (except grade 3 hypertension and grade 3 nausea, vomiting or diarrhea for which proper measures for prevention and treatment were not implemented, and alopecia); blood lactate levels > 5 mmol; grade ≥ 2 AE prohibiting dosing of IM156 for ≥ 21 continuous days except for alterations in serum calcium or phosphorus levels. The safety analysis includes all patients who received at least one dose of study drug.
The safety population was defined as all patients who received at least one dose of IM156. The PK population was not defined in the protocol but included all patients with sufficient PK data to perform adequate PK modeling. The efficacy population included all patients who underwent at least one tumor imaging assessment while receiving IM156. Safety was assessed using descriptive statistics (e.g., DLTs, AEs, laboratory tests, physical examination, 12-lead ECG). The incidence and number of events were reported for the DLTs observed in Cycle 1 per dose group. […] Adverse events and TRAEs were standardized with the System Organ Class and the Preferred Term using the Medical Dictionary for Regulatory Activities v23.0. In addition, TEAEs, serious adverse events (SAEs), TEAE severity, and TEAEs leading to withdrawal were presented by dose group. Efficacy data were to be presented by Waterfall and Swim Lane plots. Time to event endpoints (e.g., DoR, PFS) were determined using Kaplan–Meier estimations with the median value for each endpoint summarized.

[1] = DL5 1200 mg orally every other day (n=3)

NC(=Nc1ccc(OC(F)(F)F)cc1)N=C(N)N1CCCC1 [IM156]
TEAE Dry skin grade 1 [1]: 0 | TEAE Dry skin grade 2 [1]: 0 | TEAE Dry skin grade 3 [1]: 0 | TEAE Dry skin grade 4 [1]: 0 | TEAE Flank pain grade 1 [1]: 0 | TEAE Flank pain grade 2 [1]: 0 | TEAE Flank pain grade 3 [1]: 0 | TEAE Flank pain grade 4 [1]: 0 | TEAE Hypertension grade 1 [1]: 0 | TEAE Hypertension grade 2 [1]: 0 | TEAE Hypertension grade 3 [1]: 0 | TEAE Hypertension grade 4 [1]: 0 | TEAE Hypotension grade 1 [1]: 0 | TEAE Hypotension grade 2 [1]: 1 | TEAE Hypotension grade 3 [1]: 0 | TEAE Hypotension grade 4 [1]: 0 | TEAE Insomnia grade 1 [1]: 0 | TEAE Insomnia grade 2 [1]: 0 | TEAE Insomnia grade 3 [1]: 0 | TEAE Insomnia grade 4 [1]: 0 | TEAE Pain in extremity grade 1 [1]: 0 | TEAE Pain in extremity grade 2 [1]: 0 | TEAE Pain in extremity grade 3 [1]: 0 | TEAE Pain in extremity grade 4 [1]: 0 | TEAE Pruritus grade 1 [1]: 0 | TEAE Pruritus grade 2 [1]: 0 | TEAE Pruritus grade 3 [1]: 0 | TEAE Pruritus grade 4 [1]: 0 | TEAE Psychiatric disorders grade 1 [1]: 0 | TEAE Psychiatric disorders grade 2 [1]: 0 | TEAE Psychiatric disorders grade 3 [1]: 0 | TEAE Psychiatric disorders grade 4 [1]: 0 | TEAE Purpura grade 1 [1]: 0 | TEAE Purpura grade 2 [1]: 0 | TEAE Purpura grade 3 [1]: 0 | TEAE Purpura grade 4 [1]: 0 | TEAE Urinary retention grade 1 [1]: 0 | TEAE Urinary retention grade 2 [1]: 0 | TEAE Urinary retention grade 3 [1]: 0 | TEAE Urinary retention grade 4 [1]: 0 | TEAE Urinary tract disorder grade 1 [1]: 0 | TEAE Urinary tract disorder grade 2 [1]: 0 | TEAE Urinary tract disorder grade 3 [1]: 0 | TEAE Urinary tract disorder grade 4 [1]: 0 | TEAE Abdominal discomfort, grade 1 (DL6 800 mg QD (n=3)): 1 | TEAE Alanine aminotransferase increased, grade 1 (DL6 800 mg QD (n=3)): 1 | TEAE Aspartate aminotransferase increased, grade 1 (DL6 800 mg QD (n=3)): 1 | TEAE Blood lactic acid increased, grade 1 (DL6 800 mg QD (n=3)): 1 | TEAE Constipation, grade 1 (DL6 800 mg QD (n=3)): 2 | TEAE Decreased appetite, grade 1 (DL6 800 mg QD (n=3)): 1 | TEAE Diarrhoea, grade 1 (DL6 800 mg QD (n=3)): 3 | TEAE Fatigue, grade 1 (DL6 800 mg QD (n=3)): 1 | TEAE Gastrointestinal pain, grade 1 (DL6 800 mg QD (n=3)): 1 | TEAE Nausea, grade 1 (DL6 800 mg QD (n=3)): 2 | TEAE Toothache, grade 1 (DL6 800 mg QD (n=3)): 1 | TEAE Vomiting, grade 1 (DL6 800 mg QD (n=3)): 1 | TRAE Abdominal Pain, > G3 (patients) (DL6 800 mg QD, N = 3): 0 | TRAE Abdominal Pain, All grades (patients) (DL6 800 mg QD, N = 3): 0 | TRAE Blood Lactic Acid increased, > G3 (patients) (DL6 800 mg QD, N = 3): 0 | TRAE Blood Lactic Acid increased, All grades (patients) (DL6 800 mg QD, N = 3): 1 | TRAE Constipation, > G3 (patients) (DL6 800 mg QD, N = 3): 0 | TRAE Constipation, All grades (patients) (DL6 800 mg QD, N = 3): 1 | TRAE Decreased appetite, > G3 (patients) (DL6 800 mg QD, N = 3): 0 | TRAE Decreased appetite, All grades (patients) (DL6 800 mg QD, N = 3): 0 | TRAE Diarrhoea, > G3 (patients) (DL6 800 mg QD, N = 3): 0 | TRAE Diarrhoea, All grades (patients) (DL6 800 mg QD, N = 3): 3 | TRAE Fatigue, > G3 (patients) (DL6 800 mg QD, N = 3): 0 | TRAE Fatigue, All grades (patients) (DL6 800 mg QD, N = 3): 0 | TRAE Insomnia, > G3 (patients) (DL6 800 mg QD, N = 3): 0 | TRAE Insomnia, All grades (patients) (DL6 800 mg QD, N = 3): 0 | TRAE Nausea, > G3 (patients) (DL6 800 mg QD, N = 3): 0 | TRAE Nausea, All grades (patients) (DL6 800 mg QD, N = 3): 2 | TRAE Vomiting, > G3 (patients) (DL6 800 mg QD, N = 3): 0 | TRAE Vomiting, All grades (patients) (DL6 800 mg QD, N = 3): 1 | TEAE Adrenal insufficiency grade 1 (DL6 800 mg orally daily (n=3)): 0 | TEAE Adrenal insufficiency grade 2 (DL6 800 mg orally daily (n=3)): 0 | TEAE Adrenal insufficiency grade 3 (DL6 800 mg orally daily (n=3)): 0 | TEAE Adrenal insufficiency grade 4 (DL6 800 mg orally daily (n=3)): 0 | TEAE Anaemia grade 1 (DL6 800 mg orally daily (n=3)): 0 | TEAE Anaemia grade 2 (DL6 800 mg orally daily (n=3)): 0 | TEAE Anaemia grade 3 (DL6 800 mg orally daily (n=3)): 0 | TEAE Anaemia grade 4 (DL6 800 mg orally daily (n=3)): 0 | TEAE Appendicitis perforated grade 1 (DL6 800 mg orally daily (n=3)): 0 | TEAE Appendicitis perforated grade 2 (DL6 800 mg orally daily (n=3)): 0 | TEAE Appendicitis perforated grade 3 (DL6 800 mg orally daily (n=3)): 0 | TEAE Appendicitis perforated grade 4 (DL6 800 mg orally daily (n=3)): 0 | TEAE Back pain grade 1 (DL6 800 mg orally daily (n=3)): 0 | TEAE Back pain grade 2 (DL6 800 mg orally daily (n=3)): 0 | TEAE Back pain grade 3 (DL6 800 mg orally daily (n=3)): 0 | TEAE Back pain grade 4 (DL6 800 mg orally daily (n=3)): 0 | TEAE Cystitis grade 1 (DL6 800 mg orally daily (n=3)): 0 | TEAE Cystitis grade 2 (DL6 800 mg orally daily (n=3)): 0 | TEAE Cystitis grade 3 (DL6 800 mg orally daily (n=3)): 0 | TEAE Cystitis grade 4 (DL6 800 mg orally daily (n=3)): 0 | TEAE Dry skin grade 1 (DL6 800 mg orally daily (n=3)): 0 | TEAE Dry skin grade 2 (DL6 800 mg orally daily (n=3)): 0 | TEAE Dry skin grade 3 (DL6 800 mg orally daily (n=3)): 0 | TEAE Dry skin grade 4 (DL6 800 mg orally daily (n=3)): 0 | TEAE Flank pain grade 1 (DL6 800 mg orally daily (n=3)): 0 | TEAE Flank pain grade 2 (DL6 800 mg orally daily (n=3)): 0 | TEAE Flank pain grade 3 (DL6 800 mg orally daily (n=3)): 0 | TEAE Flank pain grade 4 (DL6 800 mg orally daily (n=3)): 0 | TEAE Hypertension grade 1 (DL6 800 mg orally daily (n=3)): 0 | TEAE Hypertension grade 2 (DL6 800 mg orally daily (n=3)): 0 | TEAE Hypertension grade 3 (DL6 800 mg orally daily (n=3)): 0 | TEAE Hypertension grade 4 (DL6 800 mg orally daily (n=3)): 0 | TEAE Hypotension grade 1 (DL6 800 mg orally daily (n=3)): 0 | TEAE Hypotension grade 2 (DL6 800 mg orally daily (n=3)): 0 | TEAE Hypotension grade 3 (DL6 800 mg orally daily (n=3)): 0 | TEAE Hypotension grade 4 (DL6 800 mg orally daily (n=3)): 0 | TEAE Insomnia grade 1 (DL6 800 mg orally daily (n=3)): 1 | TEAE Insomnia grade 2 (DL6 800 mg orally daily (n=3)): 0 | TEAE Insomnia grade 3 (DL6 800 mg orally daily (n=3)): 0 | TEAE Insomnia grade 4 (DL6 800 mg orally daily (n=3)): 0 | TEAE Pain in extremity grade 1 (DL6 800 mg orally daily (n=3)): 0 | TEAE Pain in extremity grade 2 (DL6 800 mg orally daily (n=3)): 0 | TEAE Pain in extremity grade 3 (DL6 800 mg orally daily (n=3)): 0
